Results on 48 compounds are retold here after patent US20070275984A1, “Novel Thieno-Pyridine and Thieno-Pyrimidine Derivatives and Their Use as Positive Allosteric Modulators of Mglur2-Receptors” (JANSSEN PHARMACEUTICA N.V., priority 2004, published 2007).

Molecules are shown by their SMILES.

Regarding `CCc1cc2c(NC(C)c3ccccc3)ncnc2s1` (stereo not drawn), the melting point amounted to 141 °C.

Take `Cc1nc(NCCc2ccccc2)c2ccsc2n1` [Compound 1, 2-methyl-N-phenethylthieno[2,3-d]pyrimidin-4-amine]: the melting point worked out at 111 °C.

The compound `CCc1nc(NCCc2ccccc2)c2ccsc2n1` [Compound 2, 2-ethyl-N-phenethylthieno[2,3-d]pyrimidin-4-amine] displayed a melting point of 89 °C.

Compound `Cc1nc(N2CCc3ccccc3C2)c2cc(C)sc2n1` [Compound 4, 2-(2,6-dimethylthieno[2,3-d]pyrimidin-4-yl)-1,2,3,4-tetrahydroisoquinoline] gave a melting point of 105 °C.

`COc1cccc(CNc2nc(C)nc3sc(C)cc23)c1` [Compound 6, N-(3-methoxybenzyl)-2,6-dimethylthieno[2,3-d]pyrimidin-4-amine] showed a melting point of 97 °C.

With `CCc1nc(NCc2cccc(OC)c2)c2cc(C)sc2n1` [Compound 7, N-(3-methoxybenzyl)-2-ethyl-6-methylthieno[2,3-d]pyrimidin-4-amine], the melting point turned out to be 108.4 °C.

`COc1ccc(CNc2nc(C)nc3sc(C)cc23)cc1` [Compound 8, N-(4-methoxybenzyl)-2,6-dimethylthieno[2,3-d]pyrimidin-4-amine] returned a melting point of 127.5 °C.

`COc1ccc(CNc2nc(C)nc3sc(C)cc23)cc1OC` [Compound 9, N-(3,4-dimethoxybenzyl)-2,6-dimethylthieno[2,3-d]pyrimidin-4-amine] registered a melting point of 142 °C.

Regarding `Cc1nc(NCc2cccc(Cl)c2)c2cc(C)sc2n1` [Compound 10, N-(3-chlorobenzyl)-2,6-dimethylthieno[2,3-d]pyrimidin-4-amine], the melting point worked out at 136.5 °C.

The compound `Cc1nc(NCC(=O)c2ccccc2)c2cc(C)sc2n1` [Compound 12, 2-(2,6-dimethylthieno[2,3-d]pyrimidin-4-ylamino)-1-phenylethanone] showed a melting point of 159 °C.

For the compound `Cc1nc(NCCc2ccccc2)c2cc(C)sc2n1` [Compound 13, 2,6-dimethyl-N-phenethylthieno[2,3-d]pyrimidin-4-amine], the melting point was found to be 106 °C.

In turn, `Cc1cc2c(NCCc3ccccc3)nc(Cl)nc2s1` [Compound 14, 2-chloro-6-methyl-N-phenethylthieno[2,3-d]pyrimidin-4-amine] had a melting point of 119 °C.

In turn, `Cc1cc2c(NCCc3ccccc3)nc(N(C)C)nc2s1` [Compound 16, N2,N2,6-trimethyl-N4-phenethylthieno[2,3-d]pyrimidine-2,4-diamine] yielded a melting point of 142 °C.

`Cc1ccc(CCNc2nc(C)nc3sc(C)cc23)cc1` [Compound 19, N-(4-methylphenethyl)-2,6-dimethylthieno[2,3-d]pyrimidin-4-amine] showed a melting point of 115 °C.

On to `CCc1ccc(CCNc2nc(C)nc3sc(C)cc23)cc1` [Compound 20, N-(4-ethylphenethyl)-2,6-dimethylthieno[2,3-d]pyrimidin-4-amine], for which the melting point was 62 °C.

`Cc1nc(NCCc2cccc(C(F)(F)F)c2)c2cc(C)sc2n1` [Compound 21, N-(3-(trifluoromethyl)phenethyl)-2,6-dimethylthieno[2,3-d]pyrimidin-4-amine] returned a melting point of 98.2 °C.

`Cc1nc(NCCc2cccc(O)c2)c2cc(C)sc2n1` [Compound 22, N-(3-hydroxyphenethyl)-2,6-dimethylthieno[2,3-d]pyrimidin-4-amine]: the melting point was determined as 162.5 °C.

In the case of `Cc1nc(NCCc2ccc(O)cc2)c2cc(C)sc2n1` [Compound 23, 4-(2-(2,6-dimethylthieno[2,3-d]pyrimidin-4-ylamino)ethyl)phenol], the melting point came out at 166 °C.

In turn, `COc1ccccc1CCNc1nc(C)nc2sc(C)cc12` [Compound 24, N-(2-methoxyphenethyl)-2,6-dimethylthieno[2,3-d]pyrimidin-4-amine] came in with a melting point of 134 °C.

`COc1cccc(CCNc2nc(C)nc3sc(C)cc23)c1` [Compound 25, N-(3-methoxyphenethyl)-2,6-dimethylthieno[2,3-d]pyrimidin-4-amine] had a melting point of 139 °C.

With `CCc1nc(NCCc2cccc(OC)c2)c2cc(C)sc2n1` [Compound 26, N-(3-methoxyphenethyl)-2-ethyl-6-methylthieno[2,3-d]pyrimidin-4-amine], the melting point was determined as 83.5 °C.

`COc1ccc(CCNc2ncnc3sc(C)cc23)cc1` [Compound 27, N-(4-methoxyphenethyl)-6-methylthieno[2,3-d]pyrimidin-4-amine] came in with a melting point of 199 °C.

The compound `CCc1nc(NCCc2ccc(OC)cc2)c2cc(C)sc2n1` [Compound 29, N-(4-methoxyphenethyl)-2-ethyl-6-methylthieno[2,3-d]pyrimidin-4-amine] registered a melting point of 82 °C.

With `CCOc1ccc(CCNc2nc(C)nc3sc(C)cc23)cc1` [Compound 30, N-(4-ethoxyphenethyl)-2,6-dimethylthieno[2,3-d]pyrimidin-4-amine], the melting point is 101 to 103 °C.

In turn, `COc1cc(CCNc2nc(C)nc3sc(C)cc23)ccc1O` [Compound 31, 4-(2-(2,6-dimethylthieno[2,3-d]pyrimidin-4-ylamino)ethyl)-2-methoxyphenol] returned a melting point of 135 °C.

In turn, `COc1ccc(CCNc2nc(C)nc3sc(C)cc23)cc1OC` [Compound 33, N-(3,4-dimethoxyphenethyl)-2,6-dimethylthieno[2,3-d]pyrimidin-4-amine] returned a melting point of 85 °C.

`CCc1nc(NCCc2ccc(OC)c(OC)c2)c2cc(C)sc2n1` [Compound 34, N-(3,4-dimethoxyphenethyl)-2-ethyl-6-methylthieno[2,3-d]pyrimidin-4-amine] registered a melting point of 105 °C.

For `COc1cc(CCNc2nc(C)nc3sc(C)cc23)cc(OC)c1` [Compound 35, N-(3,5-dimethoxyphenethyl)-2,6-dimethylthieno[2,3-d]pyrimidin-4-amine], the melting point is 106 to 107 °C.

Consider `Cc1nc(NCCc2ccc(Cl)cc2)c2cc(C)sc2n1` [Compound 38, N-(4-chlorophenethyl)-2,6-dimethylthieno[2,3-d]pyrimidin-4-amine], for which the melting point stood at 129 °C.

`Cc1nc(NCCc2ccc(F)cc2)c2cc(C)sc2n1` [Compound 41, N-(4-fluorophenethyl)-2,6-dimethylthieno[2,3-d]pyrimidin-4-amine] showed a melting point of 117.2 °C.

As for `Cc1nc(NCCc2ccc(S(C)(=O)=O)cc2)c2cc(C)sc2n1` [Compound 44, N-(4-(methylsulfonyl)phenethyl)-2,6-dimethylthieno[2,3-d]pyrimidin-4-amine], the melting point was in the range of 176 to 179.5 °C.

In turn, `Cc1nc(NCCOc2ccccc2)c2cc(C)sc2n1` [Compound 47, 2,6-dimethyl-N-(2-phenoxyethyl)thieno[2,3-d]pyrimidin-4-amine] came in with a melting point of 156.5 °C.

On to `Cc1nc(NCCc2ccccn2)c2cc(C)sc2n1` [Compound 48, 2,6-dimethyl-N-(2-(pyridin-2-yl)ethyl)thieno[2,3-d]pyrimidin-4-amine], for which the melting point was found to be 139 °C.

As for `Cc1nc(NCCc2cccs2)c2cc(C)sc2n1` [Compound 50, 2,6-dimethyl-N-(2-(thiophen-2-yl)ethyl)thieno[2,3-d]pyrimidin-4-amine], the melting point lay within 102.5 to 103.7 °C.

In turn, `COc1ccc(CCN(C)c2nc(C)nc3sc(C)cc23)cc1` [Compound 51, N-(4-methoxyphenethyl)-N,2,6-trimethylthieno[2,3-d]pyrimidin-4-amine] gave a melting point of 81 °C.

Regarding `Cc1nc(NCC(C)c2ccccc2)c2cc(C)sc2n1` (stereo not drawn) [Compound 52, 2,6-dimethyl-N-(2-phenylpropyl)thieno[2,3-d]pyrimidin-4-amine], the melting point was 94 °C.

`Cc1nc(NCC(O)c2ccccc2)c2cc(C)sc2n1` (stereo not drawn) [Compound 53, 2-(2,6-dimethylthieno[2,3-d]pyrimidin-4-ylamino)-1-phenylethanol] came in with a melting point of 117 °C.

`Cc1nc(NCCCCc2ccccc2)c2cc(C)sc2n1` [Compound 54, 2,6-dimethyl-N-(4-phenylbutyl)thieno[2,3-d]pyrimidin-4-amine]: the melting point was determined as 108 °C.

In turn, `COc1cccc(CCCNc2nc(C)nc3sc(C)cc23)c1` [Compound 55, N-(3-(3-methoxyphenyl)propyl)-2,6-dimethylthieno[2,3-d]pyrimidin-4-amine] displayed a melting point of 122 °C.

`COc1ccc(CCCNc2nc(C)nc3sc(C)cc23)cc1` [Compound 56, N-(3-(4-methoxyphenyl)propyl)-2,6-dimethylthieno[2,3-d]pyrimidin-4-amine] displayed a melting point of 120 °C.

For `COCCCNc1nc(C)nc2sc(C)cc12` [Compound 57, N-(3-methoxypropyl)-2,6-dimethylthieno[2,3-d]pyrimidin-4-amine], the melting point came to 90 °C.

In turn, `COc1cccc(CNc2nc(C)nc3sc(Cc4ccccc4)cc23)c1` [Compound 60, N-(3-methoxybenzyl)-6-benzyl-2-methylthieno[2,3-d]pyrimidin-4-amine] showed a melting point of 107 °C.

For `CN(C)C(=O)c1cc2c(NCCc3ccccc3)ncnc2s1` [Compound 62, N,N-dimethyl-4-(phenethylamino)thieno[2,3-d]pyrimidine-6-carboxamide], the melting point amounted to 157 °C.

Take `CCc1cc2c(NCc3ccccc3)ncnc2s1` [Compound 64, N-benzyl-6-ethylthieno[2,3-d]pyrimidin-4-amine]: the melting point turned out to be 133 °C.

For the compound `CCc1cc2c(NCc3cccc(OC)c3)ncnc2s1` [Compound 65, N-(3-methoxybenzyl)-6-ethylthieno[2,3-d]pyrimidin-4-amine], the melting point was 99 °C.

As to `CCc1cc2c(NCc3ccc(F)cc3)ncnc2s1` [Compound 66, N-(4-fluorobenzyl)-6-ethylthieno[2,3-d]pyrimidin-4-amine], the melting point came out at 104 °C.

For the compound `CCc1cc2c(NCCc3ccccc3)ncnc2s1` [Compound 68, 6-ethyl-N-phenethylthieno[2,3-d]pyrimidin-4-amine], the melting point is 118 °C.

`CCc1cc2c(NCCc3cccc(OC)c3)ncnc2s1` [Compound 69, N-(3-methoxyphenethyl)-6-ethylthieno[2,3-d]pyrimidin-4-amine] showed a melting point of 81 °C.

Usually melting point stands for the temperature, or range, at which the solid turns liquid.
